{
  "source": "ChEMBL document CHEMBL1201862",
  "about": "“PubChem BioAssay data set” (2004)",
  "test_in_all_cases": "DTP human tumour cell line panel, 48 h",
  "key": {"786-0": {"system": "786-0"}, "A498": {"system": "A498"}, "A549": {"system": "A549"}, "ACHN": {"system": "ACHN"}, "BT-549": {"system": "BT-549"}, "CAKI-1": {"system": "CAKI-1"}, "COLO 205": {"system": "COLO 205"}, "DU-145": {"system": "DU-145"}, "EKVX": {"system": "EKVX"}, "HCC 2998": {"system": "HCC 2998"}, "HCT-116": {"system": "HCT-116"}, "HCT-15": {"system": "HCT-15"}, "HL-60": {"system": "HL-60"}, "HOP-62": {"system": "HOP-62"}, "HOP-92": {"system": "HOP-92"}, "HT-29": {"system": "HT-29"}, "Hs-578T": {"system": "Hs-578T"}, "IGROV-1": {"system": "IGROV-1"}, "K562": {"system": "K562"}, "KM12": {"system": "KM12"}, "LOX IMVI": {"system": "LOX IMVI"}, "M14": {"system": "M14"}, "MCF7": {"system": "MCF7"}, "MDA-MB-231": {"system": "MDA-MB-231"}, "MDA-MB-435": {"system": "MDA-MB-435"}, "MDA-N": {"system": "MDA-N"}, "MOLT-4": {"system": "MOLT-4"}, "Malme-3M": {"system": "Malme-3M"}, "NCI-H226": {"system": "NCI-H226"}, "NCI-H23": {"system": "NCI-H23"}, "NCI-H460": {"system": "NCI-H460"}, "NCI-H522": {"system": "NCI-H522"}, "NCI/ADR-RES": {"system": "NCI/ADR-RES"}, "OVCAR-3": {"system": "OVCAR-3"}, "OVCAR-4": {"system": "OVCAR-4"}, "OVCAR-5": {"system": "OVCAR-5"}, "OVCAR-8": {"system": "OVCAR-8"}, "PC-3": {"system": "PC-3"}, "RPMI-8226": {"system": "RPMI-8226"}, "RXF 393": {"system": "RXF 393"}, "SF-268": {"system": "SF-268"}, "SF-295": {"system": "SF-295"}, "SK-MEL-28": {"system": "SK-MEL-28"}, "SK-MEL-5": {"system": "SK-MEL-5"}, "SK-OV-3": {"system": "SK-OV-3"}, "SN12C": {"system": "SN12C"}, "SNB-19": {"system": "SNB-19"}, "SNB-75": {"system": "SNB-75"}, "SW-620": {"system": "SW-620"}, "T47D": {"system": "T47D"}, "TK-10": {"system": "TK-10"}, "U-251": {"system": "U-251"}, "UACC-257": {"system": "UACC-257"}, "UACC-62": {"system": "UACC-62"}, "UO-31": {"system": "UO-31"}},
  "note": "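Values below derive from 48-hour exposures of cells grown in 96-well plates, with endpoints linearly interpolated between the two concentrations bracketing the appropriate inhibition level. The concentration for 50% growth inhibition is given as GI50.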 Calls of active or inactive are those of the source. Cut-off read from the data, not from the text of the source: active = GI50 up to about 1.1 µM and inactive = higher.",
  "data": [
    {"smiles": "NNC(=O)c1ccc[n+](CCc2ccccc2)c1", "values": [
      {"measurement": "GI50", "setting": "786-0", "value": "> 100 µM (inactive)"},
      {"measurement": "GI50", "setting": "A498", "value": "> 100 µM (inactive)"},
      {"measurement": "GI50", "setting": "A549", "value": "> 100 µM (inactive)"},
      {"measurement": "GI50", "setting": "ACHN", "value": "> 100 µM (inactive)"},
      {"measurement": "GI50", "setting": "BT-549", "value": "> 100 µM (inactive)"},
      {"measurement": "GI50", "setting": "CAKI-1", "value": "> 100 µM (inactive)"},
      {"measurement": "GI50", "setting": "COLO 205", "value": "> 100 µM (inactive)"},
      {"measurement": "GI50", "setting": "DU-145", "value": "> 100 µM (inactive)"},
      {"measurement": "GI50", "setting": "EKVX", "value": "> 100 µM (inactive)"},
      {"measurement": "GI50", "setting": "HCC 2998", "value": "> 100 µM (inactive)"},
      {"measurement": "GI50", "setting": "HCT-116", "value": "> 100 µM (inactive)"},
      {"measurement": "GI50", "setting": "HCT-15", "value": "> 100", "unit": "µM"},
      {"measurement": "GI50", "setting": "HL-60", "value": "> 100 µM (inactive)"},
      {"measurement": "GI50", "setting": "HOP-62", "value": "> 100 µM (inactive)"},
      {"measurement": "GI50", "setting": "HOP-92", "value": "> 100 µM (inactive)"},
      {"measurement": "GI50", "setting": "HT-29", "value": "> 100 µM (inactive)"},
      {"measurement": "GI50", "setting": "Hs-578T", "value": "> 100 µM (inactive)"},
      {"measurement": "GI50", "setting": "IGROV-1", "value": "> 100 µM (inactive)"},
      {"measurement": "GI50", "setting": "K562", "value": "> 100 µM (inactive)"},
      {"measurement": "GI50", "setting": "KM12", "value": "> 100 µM (inactive)"},
      {"measurement": "GI50", "setting": "LOX IMVI", "value": "> 100 µM (inactive)"},
      {"measurement": "GI50", "setting": "M14", "value": "> 100 µM (inactive)"},
      {"measurement": "GI50", "setting": "MCF7", "value": "> 100 µM (inactive)"},
      {"measurement": "GI50", "setting": "MDA-MB-231", "value": "> 100 µM (inactive)"},
      {"measurement": "GI50", "setting": "MDA-MB-435", "value": "> 100 µM (inactive)"},
      {"measurement": "GI50", "setting": "MDA-N", "value": "> 100 µM (inactive)"},
      {"measurement": "GI50", "setting": "MOLT-4", "value": "> 100 µM (inactive)"},
      {"measurement": "GI50", "setting": "Malme-3M", "value": "> 100 µM (inactive)"},
      {"measurement": "GI50", "setting": "NCI-H226", "value": "> 100 µM (inactive)"},
      {"measurement": "GI50", "setting": "NCI-H23", "value": "> 100 µM (inactive)"},
      {"measurement": "GI50", "setting": "NCI-H460", "value": "> 100 µM (inactive)"},
      {"measurement": "GI50", "setting": "NCI-H522", "value": "> 100 µM (inactive)"},
      {"measurement": "GI50", "setting": "NCI/ADR-RES", "value": "> 100 µM (inactive)"},
      {"measurement": "GI50", "setting": "OVCAR-3", "value": "> 100 µM (inactive)"},
      {"measurement": "GI50", "setting": "OVCAR-4", "value": "> 100 µM (inactive)"},
      {"measurement": "GI50", "setting": "OVCAR-5", "value": "> 100 µM (inactive)"},
      {"measurement": "GI50", "setting": "OVCAR-8", "value": "> 100 µM (inactive)"},
      {"measurement": "GI50", "setting": "PC-3", "value": "> 100 µM (inactive)"},
      {"measurement": "GI50", "setting": "RPMI-8226", "value": "> 100 µM (inactive)"},
      {"measurement": "GI50", "setting": "RXF 393", "value": "> 100 µM (inactive)"},
      {"measurement": "GI50", "setting": "SF-268", "value": "> 100 µM (inactive)"},
      {"measurement": "GI50", "setting": "SF-295", "value": "> 100 µM (inactive)"},
      {"measurement": "GI50", "setting": "SK-MEL-28", "value": "> 100 µM (inactive)"},
      {"measurement": "GI50", "setting": "SK-MEL-5", "value": "> 100 µM (inactive)"},
      {"measurement": "GI50", "setting": "SK-OV-3", "value": "> 100 µM (inactive)"},
      {"measurement": "GI50", "setting": "SN12C", "value": "> 100 µM (inactive)"},
      {"measurement": "GI50", "setting": "SNB-19", "value": "> 100 µM (inactive)"},
      {"measurement": "GI50", "setting": "SNB-75", "value": "> 100 µM (inactive)"},
      {"measurement": "GI50", "setting": "SW-620", "value": "> 100 µM (inactive)"},
      {"measurement": "GI50", "setting": "T47D", "value": "> 100 µM (inactive)"},
      {"measurement": "GI50", "setting": "TK-10", "value": "> 100 µM (inactive)"},
      {"measurement": "GI50", "setting": "U-251", "value": "> 100 µM (inactive)"},
      {"measurement": "GI50", "setting": "UACC-257", "value": "> 100 µM (inactive)"},
      {"measurement": "GI50", "setting": "UACC-62", "value": "> 100 µM (inactive)"},
      {"measurement": "GI50", "setting": "UO-31", "value": "> 100 µM (inactive)"}
    ]}
  ]
}
